# According to ChEMBL document CHEMBL4334471, “Discovery of 1,8-disubstituted-[1,2,3]triazolo[4,5-c]quinoline derivatives as a new class of Hippo signaling pathway inhibitors” (Bioorg Med Chem Lett, 2019):
# Columns and labels:
# [1] = molecular target: Ribosomal protein S6 kinase alpha-1 (Homo sapiens) (UniProt Q15418); experiment: Inhibition of recombinant full length human Rsk1 assessed as residual activity at 10 uM using KKKNRTLSVA as substrate incubated for 40 mins in presence of [gamma33P]ATP by scintillation counting based radiometry assay relative to control
# Sequence of Ribosomal protein S6 kinase alpha-1 (Homo sapiens) (Q15418 whole entry): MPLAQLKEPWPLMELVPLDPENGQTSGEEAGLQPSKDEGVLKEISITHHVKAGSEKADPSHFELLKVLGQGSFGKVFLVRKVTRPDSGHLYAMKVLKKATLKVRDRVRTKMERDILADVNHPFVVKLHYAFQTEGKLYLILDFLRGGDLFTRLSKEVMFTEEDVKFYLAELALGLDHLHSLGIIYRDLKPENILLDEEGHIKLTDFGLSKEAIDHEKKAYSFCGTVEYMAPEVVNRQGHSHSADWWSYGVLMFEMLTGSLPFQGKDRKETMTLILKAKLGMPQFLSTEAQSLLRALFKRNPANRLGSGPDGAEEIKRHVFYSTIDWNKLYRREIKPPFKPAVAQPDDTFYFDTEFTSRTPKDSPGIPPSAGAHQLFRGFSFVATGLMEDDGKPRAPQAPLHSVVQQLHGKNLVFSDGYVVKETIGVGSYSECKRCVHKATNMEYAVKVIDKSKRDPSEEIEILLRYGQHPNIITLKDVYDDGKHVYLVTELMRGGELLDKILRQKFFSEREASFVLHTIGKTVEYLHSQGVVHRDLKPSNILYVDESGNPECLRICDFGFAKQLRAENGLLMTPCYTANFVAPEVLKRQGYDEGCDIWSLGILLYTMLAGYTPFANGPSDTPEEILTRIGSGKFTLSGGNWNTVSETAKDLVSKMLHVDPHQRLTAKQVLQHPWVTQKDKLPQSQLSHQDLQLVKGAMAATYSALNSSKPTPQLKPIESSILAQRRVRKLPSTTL
# [2] = molecular target: Platelet-derived growth factor receptor beta (Homo sapiens) (UniProt P09619); experiment: Inhibition of human PDGFRbeta (557 to end residues) assessed as residual activity at 10 uM using poly(Glu, Tyr) 4:1 as substrate measured after 40 mins in presence of [gamma33P]ATP by scintillation counting based radiometry assay relative to control
# Sequence of Platelet-derived growth factor receptor beta (Homo sapiens) (P09619 whole entry): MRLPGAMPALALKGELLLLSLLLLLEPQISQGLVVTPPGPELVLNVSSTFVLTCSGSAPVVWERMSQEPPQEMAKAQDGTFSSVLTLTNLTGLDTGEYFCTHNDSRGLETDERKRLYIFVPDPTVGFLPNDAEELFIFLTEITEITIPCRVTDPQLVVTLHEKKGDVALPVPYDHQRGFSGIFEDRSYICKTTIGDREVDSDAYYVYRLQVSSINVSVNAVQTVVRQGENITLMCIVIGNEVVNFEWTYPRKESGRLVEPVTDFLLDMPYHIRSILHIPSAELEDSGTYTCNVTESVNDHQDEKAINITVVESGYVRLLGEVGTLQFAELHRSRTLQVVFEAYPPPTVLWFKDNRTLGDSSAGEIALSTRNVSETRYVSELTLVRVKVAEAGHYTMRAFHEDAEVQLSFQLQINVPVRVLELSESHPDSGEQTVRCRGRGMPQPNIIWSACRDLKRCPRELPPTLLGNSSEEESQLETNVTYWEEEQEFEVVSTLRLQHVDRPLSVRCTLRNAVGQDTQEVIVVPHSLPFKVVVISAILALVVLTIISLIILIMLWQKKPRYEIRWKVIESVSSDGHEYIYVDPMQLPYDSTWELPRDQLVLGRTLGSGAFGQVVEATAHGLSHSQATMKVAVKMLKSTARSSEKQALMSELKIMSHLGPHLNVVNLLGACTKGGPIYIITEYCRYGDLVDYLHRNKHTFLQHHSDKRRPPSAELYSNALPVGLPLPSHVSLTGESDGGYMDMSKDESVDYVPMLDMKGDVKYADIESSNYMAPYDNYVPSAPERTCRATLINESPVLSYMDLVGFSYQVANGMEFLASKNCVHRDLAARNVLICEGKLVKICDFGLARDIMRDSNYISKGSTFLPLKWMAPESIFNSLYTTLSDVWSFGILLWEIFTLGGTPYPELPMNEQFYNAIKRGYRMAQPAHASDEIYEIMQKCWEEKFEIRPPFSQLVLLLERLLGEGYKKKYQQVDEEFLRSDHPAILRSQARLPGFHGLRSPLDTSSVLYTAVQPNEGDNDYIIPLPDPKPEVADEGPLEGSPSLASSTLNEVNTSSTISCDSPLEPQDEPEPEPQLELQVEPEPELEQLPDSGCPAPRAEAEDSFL
# [3] = tested on: PI3-kinase p110-alpha/p85-alpha (Homo sapiens), P27986+P42336 [E542K]; experiment: Inhibition of recombinant full-length human PI3K p110/p85 E542K mutant assessed as residual activity at 10 uM using phosphatidylinositol-4, 5-bisphosphate as substrate incubated for 40 mins in presence of [gamma33P]ATP by scintillation counting based radiometry assay relative to control
# [4] = molecular target: Proto-oncogene tyrosine-protein kinase receptor Ret (Homo sapiens) (UniProt P07949); experiment: Inhibition of recombinant human Ret (658 to end residues) assessed as residual activity at 10 uM using KKKSPGEYVNIEFG as substrate incubated for 40 mins in presence of [gamma33P]ATP by scintillation counting based radiometry assay relative to control
# [5] = tested on: Platelet-derived growth factor receptor alpha (Homo sapiens), P16234 [V561D]; experiment: Inhibition of human PDGFRalpha V561D mutant (550 to end residues) assessed as residual activity at 10 uM using poly(Glu, Tyr) 4:1 as substrate measured after 40 mins in presence of [gamma33P]ATP by scintillation counting based radiometry assay relative to control
# [6] = molecular target: Serine/threonine-protein kinase ICK (Homo sapiens) (UniProt Q9UPZ9); experiment: Inhibition of human ICK (1 to 312 residues) assessed as residual activity at 10 uM using RRRFRPASPLRGP as substrate after 40 mins by [gamma-33ATP] radiometric assay relative to control
# [7] = tested on: Receptor-type tyrosine-protein kinase FLT3 (Homo sapiens), P36888 [D835Y]; experiment: Inhibition of recombinant human FLT3 D835Y mutant (564 to end residues) assessed as residual activity at 10 uM using EAIYAAPFAKKK as substrate at 40 mins in presence of [gamma-33ATP] by scintillation counting based radiometry assay relative to control
# [8] = molecular target: TRAF2 and NCK-interacting protein kinase (Homo sapiens) (UniProt Q9UKE5); experiment: Inhibition of human TNIK (1 to 367 residues) assessed as residual activity at 10 uM using RLGRDKYKTLRQIRQ as substrate incubated for 40 mins in presence of [gamma33P]ATP by scintillation counting based radiometry assay relative to control
# [9] = molecular target: Serine/threonine-protein kinase mTOR (Homo sapiens) (UniProt P42345); experiment: Inhibition of recombinant full length human mTOR assessed as residual activity at 10 uM measured after 40 mins in presence of [gamma33P]ATP by scintillation counting based radiometry assay relative to control
# Homo sapiens = species: Homo sapiens; experiment: Inhibition of recombinant human MAPKAPK2 A399G mutant (46 to end residues) assessed as residual activity at 10 uM using KKLNRTLSVA as substrate incubated for 40 mins in presence of [gamma-33ATP by scintillation counting based radiometry assay relative to control
# [10] = molecular target: Homeodomain-interacting protein kinase 4 (Homo sapiens) (UniProt Q8NE63); experiment: Inhibition of human HIPK4 assessed as residual activity at 10 uM using RRRFRPASPLRGPPK as substrate after 40 mins by [gamma-33ATP] radiometric assay relative to control
# Sequence of Homeodomain-interacting protein kinase 4 (Homo sapiens) (Q8NE63 whole entry): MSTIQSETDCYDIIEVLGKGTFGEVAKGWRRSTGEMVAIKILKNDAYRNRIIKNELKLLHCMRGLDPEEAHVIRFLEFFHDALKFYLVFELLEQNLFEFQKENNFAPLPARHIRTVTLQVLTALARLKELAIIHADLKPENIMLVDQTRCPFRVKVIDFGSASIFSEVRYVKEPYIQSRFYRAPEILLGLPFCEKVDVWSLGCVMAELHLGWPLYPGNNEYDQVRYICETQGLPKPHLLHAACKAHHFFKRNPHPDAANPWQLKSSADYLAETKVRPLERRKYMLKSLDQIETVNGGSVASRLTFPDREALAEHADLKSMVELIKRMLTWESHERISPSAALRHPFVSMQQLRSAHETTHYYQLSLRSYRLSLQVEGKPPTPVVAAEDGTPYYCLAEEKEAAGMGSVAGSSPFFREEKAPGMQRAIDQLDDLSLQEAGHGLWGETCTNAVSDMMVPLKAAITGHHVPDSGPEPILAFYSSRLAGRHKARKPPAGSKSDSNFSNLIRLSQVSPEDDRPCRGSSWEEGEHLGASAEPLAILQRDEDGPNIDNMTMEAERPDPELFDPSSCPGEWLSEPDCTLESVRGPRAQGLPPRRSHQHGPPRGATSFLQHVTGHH
# [11] = tested on: Proto-oncogene tyrosine-protein kinase receptor Ret (Homo sapiens), P07949 [V804L]; experiment: Inhibition of recombinant human Ret V804L mutant (658 to end residues) assessed as residual activity at 10 uM using KKKSPGEYVNIEFG as substrate incubated for 40 mins in presence of [gamma33P]ATP by scintillation counting based radiometry assay relative to control
# [12] = molecular target: Phosphorylase b kinase gamma catalytic chain, skeletal muscle/heart isoform (Homo sapiens) (UniProt Q16816); experiment: Inhibition of recombinant full-length human PhKgamma1 assessed as residual activity at 10 uM using KKLNRTLSFAEPG as substrate incubated for 40 mins in presence of [gamma33P]ATP by scintillation counting based radiometry assay relative to control
# Sequence of Phosphorylase b kinase gamma catalytic chain, skeletal muscle/heart isoform (Homo sapiens) (Q16816 whole entry, looked up, the tested form may be a part, canonical isoform): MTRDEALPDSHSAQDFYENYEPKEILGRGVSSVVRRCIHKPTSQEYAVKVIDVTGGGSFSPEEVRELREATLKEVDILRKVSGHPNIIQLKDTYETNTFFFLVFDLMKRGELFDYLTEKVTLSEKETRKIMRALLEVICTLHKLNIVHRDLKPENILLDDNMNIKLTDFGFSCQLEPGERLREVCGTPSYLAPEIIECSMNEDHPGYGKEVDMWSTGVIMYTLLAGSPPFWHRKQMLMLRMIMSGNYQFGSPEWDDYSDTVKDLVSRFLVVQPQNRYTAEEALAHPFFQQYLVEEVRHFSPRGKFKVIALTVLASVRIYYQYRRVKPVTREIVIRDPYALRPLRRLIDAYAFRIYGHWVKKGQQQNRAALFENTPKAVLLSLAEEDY
# [13] = molecular target: Fibroblast growth factor receptor 4 (Homo sapiens) (UniProt P22455); experiment: Inhibition of recombinant human FGFR4 (442 to 755 residues) assessed as residual activity at 10 uM using poly(Glu, Tyr) 4:1 as substrate at 40 mins in presence of [gamma-33ATP] by scintillation counting based radiometry assay relative to control
# [14] = molecular target: Mitogen-activated protein kinase 8 (Homo sapiens) (UniProt P45983); experiment: Inhibition of human JNK1alpha1 assessed as residual activity at 10 uM using ATF2 as substrate after 40 mins by [gamma-33ATP] radiometric assay relative to control
# [15] = molecular target: Mitogen-activated protein kinase 12 (Homo sapiens) (UniProt P53778); experiment: Inhibition of recombinant human full length SAPK3 assessed as residual activity at 10 uM using myelin basic protein as substrate incubated for 40 mins in presence of [gamma33P]ATP by scintillation counting based radiometry assay relative to control
# [16] = molecular target: SRSF protein kinase 1 (Homo sapiens) (UniProt Q96SB4); experiment: Inhibition of recombinant human SRPK1 (2 to end residues) assessed as residual activity at 10 uM using RSRSRSRSRSRSRSR as substrate incubated for 40 mins in presence of [gamma33P]ATP by scintillation counting based radiometry assay relative to control
# Sequence of SRSF protein kinase 1 (Homo sapiens) (Q96SB4 whole entry, the tested form may be a part): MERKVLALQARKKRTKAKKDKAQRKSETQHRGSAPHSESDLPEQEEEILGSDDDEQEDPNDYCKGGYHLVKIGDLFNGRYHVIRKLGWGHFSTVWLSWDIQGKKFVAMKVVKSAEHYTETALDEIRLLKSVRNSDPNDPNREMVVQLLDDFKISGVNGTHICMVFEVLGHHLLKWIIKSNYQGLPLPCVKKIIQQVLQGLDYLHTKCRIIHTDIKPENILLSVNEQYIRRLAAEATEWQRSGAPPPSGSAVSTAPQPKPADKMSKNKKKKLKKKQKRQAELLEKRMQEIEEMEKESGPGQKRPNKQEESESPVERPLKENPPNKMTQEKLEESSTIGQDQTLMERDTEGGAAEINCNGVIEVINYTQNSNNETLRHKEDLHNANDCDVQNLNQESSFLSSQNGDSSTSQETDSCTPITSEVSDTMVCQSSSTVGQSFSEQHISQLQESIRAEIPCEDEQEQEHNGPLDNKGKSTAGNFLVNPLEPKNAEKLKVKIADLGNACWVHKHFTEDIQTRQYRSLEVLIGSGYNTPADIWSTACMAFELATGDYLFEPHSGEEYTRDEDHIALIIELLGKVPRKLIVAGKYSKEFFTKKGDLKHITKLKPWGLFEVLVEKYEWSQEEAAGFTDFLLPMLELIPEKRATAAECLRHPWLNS
# [17] = molecular target: Mitogen-activated protein kinase kinase kinase kinase 3 (Homo sapiens) (UniProt Q8IVH8); experiment: Inhibition of recombinant human MAP4K3 (1 to 291 residues) assessed as residual activity at 10 uM using RLGRDKYKTLRQI as substrate incubated for 40 mins in presence of [gamma-33ATP by scintillation counting based radiometry assay relative to control
# [18] = molecular target: Calcium/calmodulin-dependent protein kinase type 1 (Homo sapiens) (UniProt Q14012); experiment: Inhibition of recombinant human CaMKIalpha (2 to end residues) assessed as residual activity at 10 uM using […] incubated for 40 mins in presence of [gamma-33ATP] by scintillation counting based radiometry assay relative to control
# Sequence of Calcium/calmodulin-dependent protein kinase type 1 (Homo sapiens) (Q14012 whole entry, looked up): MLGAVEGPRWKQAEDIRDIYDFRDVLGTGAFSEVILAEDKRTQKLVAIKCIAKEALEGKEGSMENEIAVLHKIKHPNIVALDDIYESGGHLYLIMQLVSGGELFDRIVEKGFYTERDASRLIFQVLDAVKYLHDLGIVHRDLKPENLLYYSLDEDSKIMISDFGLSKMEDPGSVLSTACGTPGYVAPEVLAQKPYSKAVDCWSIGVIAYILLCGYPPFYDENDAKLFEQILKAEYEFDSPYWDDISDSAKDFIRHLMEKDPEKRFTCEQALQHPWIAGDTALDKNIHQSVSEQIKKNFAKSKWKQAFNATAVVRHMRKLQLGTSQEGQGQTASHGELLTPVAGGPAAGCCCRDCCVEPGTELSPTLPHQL
# [19] = molecular target: Protein kinase C epsilon type (Homo sapiens) (UniProt Q02156); experiment: Inhibition of recombinant human PKCepsilon (2 to end residues) assessed as residual activity at 10 uM using ERMRPRKRQGSVRRRV as substrate incubated for 40 mins in presence of [gamma33P]ATP by scintillation counting based radiometry assay relative to control
# [20] = molecular target: Eukaryotic translation initiation factor 2-alpha kinase 3 (Homo sapiens) (UniProt Q9NZJ5); experiment: Inhibition of human PEK (536 to end residues) assessed as residual activity at 10 uM using RSRSRSRSRSRSRSR as substrate measured after 40 mins in presence of [gamma33P]ATP by scintillation counting based radiometry assay relative to control
# Sequence of Eukaryotic translation initiation factor 2-alpha kinase 3 (Homo sapiens) (Q9NZJ5 whole entry): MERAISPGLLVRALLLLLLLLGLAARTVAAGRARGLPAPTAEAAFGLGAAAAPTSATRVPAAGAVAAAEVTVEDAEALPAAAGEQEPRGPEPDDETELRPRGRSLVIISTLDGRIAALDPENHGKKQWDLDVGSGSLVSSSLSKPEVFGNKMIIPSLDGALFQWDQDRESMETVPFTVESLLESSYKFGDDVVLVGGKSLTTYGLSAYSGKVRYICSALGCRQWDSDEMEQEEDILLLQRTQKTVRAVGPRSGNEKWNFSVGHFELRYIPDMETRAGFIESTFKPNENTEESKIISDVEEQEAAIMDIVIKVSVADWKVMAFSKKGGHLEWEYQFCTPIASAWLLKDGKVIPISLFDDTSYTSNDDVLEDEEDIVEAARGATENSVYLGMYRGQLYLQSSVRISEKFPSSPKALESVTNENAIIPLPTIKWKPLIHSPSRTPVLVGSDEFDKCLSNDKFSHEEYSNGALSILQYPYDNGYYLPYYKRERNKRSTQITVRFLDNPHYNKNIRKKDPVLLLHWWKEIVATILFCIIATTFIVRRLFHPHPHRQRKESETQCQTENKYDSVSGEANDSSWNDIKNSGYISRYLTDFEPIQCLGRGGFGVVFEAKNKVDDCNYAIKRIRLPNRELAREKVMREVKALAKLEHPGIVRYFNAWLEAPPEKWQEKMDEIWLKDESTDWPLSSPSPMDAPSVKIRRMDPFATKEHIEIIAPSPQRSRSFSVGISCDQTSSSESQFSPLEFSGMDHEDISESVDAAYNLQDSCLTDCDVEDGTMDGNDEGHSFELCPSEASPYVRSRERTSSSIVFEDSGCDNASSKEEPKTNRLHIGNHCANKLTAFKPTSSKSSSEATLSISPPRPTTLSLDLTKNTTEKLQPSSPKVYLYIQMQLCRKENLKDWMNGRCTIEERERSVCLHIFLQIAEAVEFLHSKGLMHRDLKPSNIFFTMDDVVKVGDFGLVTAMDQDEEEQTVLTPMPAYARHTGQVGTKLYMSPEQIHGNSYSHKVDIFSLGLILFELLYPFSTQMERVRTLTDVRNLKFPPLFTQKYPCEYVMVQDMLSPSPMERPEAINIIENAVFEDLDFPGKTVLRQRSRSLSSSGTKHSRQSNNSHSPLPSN
compound,measurement,setting,value
C[C@@H](c1ccccc1)n1nnc2cnc3ccc(-c4cnc5[nH]ccc5c4)cc3c21,Activity,[1],46%
same,Activity,[2],79%
same,Activity,[3],8%
same,Activity,[4],57%
same,Activity,[5],2%
same,Activity,[6],44%
same,Activity,[7],42%
same,Activity,[8],16%
same,Activity,[9],-7%
same,Activity,Homo sapiens,67%
same,Activity,[10],57%
same,Activity,[11],90%
same,Activity,[12],70%
same,Activity,[13],68%
same,Activity,[14],105%
same,Activity,[15],91%
same,Activity,[16],62%
same,Activity,[17],73%
same,Activity,[18],28%
same,Activity,[19],97%
same,Activity,[20],94%
